# Tests used:
# Human GPR119 = target: T1, Human GPR119 (Homo sapiens, UniProt Q8TDV5); assay: Human GPR119 activation assay (cAMP, HTRF); format: cell-based; settings: 1 h, HEK293 cells transiently expressing human GPR119, relative to maximum effect of OEA, read-out: hGPR119 activation ability (cAMP assay) Relative Response % vs OEA; for Emax at 0.001 µM: 1 nM; for Emax at 0.01 µM: 10 nM
# T1 construct: host or cells: HEK293 (ATCC)
# T1 sequence (Q8TDV5 1-335): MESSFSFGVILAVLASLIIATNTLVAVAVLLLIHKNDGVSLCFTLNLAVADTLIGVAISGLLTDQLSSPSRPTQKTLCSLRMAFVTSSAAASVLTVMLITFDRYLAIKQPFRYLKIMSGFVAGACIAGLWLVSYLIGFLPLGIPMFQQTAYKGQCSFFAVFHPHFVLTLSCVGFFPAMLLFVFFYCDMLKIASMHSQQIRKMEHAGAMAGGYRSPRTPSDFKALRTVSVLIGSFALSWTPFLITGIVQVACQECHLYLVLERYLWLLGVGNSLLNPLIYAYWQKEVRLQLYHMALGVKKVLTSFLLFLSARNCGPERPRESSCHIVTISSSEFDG
# How it was run: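 HEK293 cells transiently overexpressing human GPR119 (48 h), pre-treated 10 min then exposed 60 min to compound in KRBH with 11.1 mM glucose, 0.1% BSA and 0.5 mM IBMX. Intracellular cAMP quantified by HTRF; activation expressed as % of maximal oleoylethanolamide effect from multiple-concentration testing.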
# C57BL/6 mouse = assay: Assessment of glucose tolerance improvement effect in mouse; format: in vivo; settings: 2 h; 10 mg/kg oral, 30 min before oral glucose 2 g/kg; male C57BL/6 mouse; blood glucose AUC
# Description: <Experimental Example 2>Assessment of glucose tolerance improvement effect in mouse
# As one of anti-diabetic effect indicators, the glucose tolerance improvement effect of the above compounds was evaluated in 7-week male laboratory mouse (C57BL/6 mouse), as the effect of improving postprandial glycemic control ability.
# The laboratory mouse was fasted from the day before the experiment for 16-17 hours. The compound of the present invention was orally administered 30 minutes before administrating glucose, and after 30 minutes, a glucose solution (2 g/kg/10 ml) was orally administered. A drug was prepared by suspending in a 10% Gelucire solution. At the times immediately before drug administration, immediately before glucose solution administration, 15 minutes, 30 minutes, 60 minutes, 90 minutes, and 120 minutes after glucose administration, the whole blood glucose levels was measured from tail vein using a blood glucose meter (AccuChek Active, Roche Diagnostics), and the area under the curve of a temporal blood glucose curve was calculated. From the calculated area under the blood glucose curve, the area under the blood glucose curve of a negative control group to which no glucose solution was administered was subtracted, and inhibitory activity against blood glucose increase of a control group to which only the 10% Gelucire solution and glucose solution were administered was calculated as a percentage, thereby evaluating the glucose tolerance improvement efficacy of a drug.
# The results are shown in Table 3, in which the glucose tolerance improvement effect represented at a dose of 10 mg/kg was represented by classifying into three groups, under 30%, more than 30% under 40%, and more than 40%. A significant glucose tolerance improvement effect was identified in 22 compounds on which the experiment was carried out, and among those compounds, 16 compounds represented an excellent in vivo activity of 30% inhibitory dose of 10 mg/kg or less. In the following Table 3, A represents an inhibitory activity more than 40%, B represents an inhibitory activity more than 30% under 40% and C represents an inhibitory activity under 30%.
Emax at 0.001 µM (Human GPR119) [%],Emax at 0.01 µM (Human GPR119) [%],SMILES,inhibition in vivo at 10 mg/kg (C57BL/6 mouse) [%]
44.6,150,"CCc1cnc(N2CCC(CCCOc3cc(F)c(C4=NC[C@@H](C)O4)c(F)c3)CC2)nc1 [Example 5, (R)-2-(4-(3-(1-(5-ethylpyrimidin-2-yl)piperidin-4-yl)propoxy)-2,6-difluorophenyl)-5-methyl-4,5-dihydrooxazole]",> 40
90.7,180,"CC(C)c1nnc(-c2c(F)cc(OCCCC3CCN(c4cnc(Cl)cn4)CC3)cc2F)o1 [Example 51, 2-(4-(3-(1-(5-chloropyrazin-2-yl)piperidin-4-yl)propoxy)-2,6-difluorophenyl)-5-isopropyl-1,3,4-oxadiazole]",> 40
63.7,206,"CC(C)c1noc(N2CCC(CCCOc3cc(F)c(-c4noc(C(C)C)n4)c(F)c3)CC2)n1 [Example 40, 3-(2,6-difluoro-4-(3-(1-(3-isopropyl-1,2,4-oxadiazol-5-yl)piperidin-4-yl)propoxy)phenyl)-5-isopropyl-1,2,4-oxadiazole]",30 to 40

# From patent US10428055B2, “Substituted piperidines having GPR119 agonistic activity” (DONG-A ST CO., LTD., priority 2014, dated 2019)
